What was measured:
human skin [1] = assay: Human skin safety, repeated insult patch test (Finn chamber); type: in vivo; details: 30 healthy adults
Experimental: In order to confirm that the isookanin according to the present invention is safe for human skin, a skin safety verification test was performed. To this end, a repeated insult patch test was conducted.
Nourishing creams containing the isookanin in amounts of 0.1%, 0.5% and 1%, respectively, were prepared. Specifically, a water phase containing purified water, triethanolamine and propylene glycol was dissolved by heating to 70° C. and then emulsified by adding a solution obtained by dissolving beeswax, liquid paraffin, an oil component, an emulsifier and a preservative by heating to 70° C. After completion of emulsification, the solution was cooled to 45° C., and the isookanin was added thereto in amounts of 0.1%, 0.5% and 1% and dispersed therein, followed by cooling to 30° C. As the content of the isookanin was increased from 0.1% to 0.5% and 1%, the content of liquid paraffin was decreased from 9.91% to 9.51% and 9.01%, respectively, thereby preparing nourishing creams.
Using the nourishing creams prepared as described above, a repeated insult patch test was conducted on the upper arm areas of 30 healthy adults every other day for a total of 9 times for 24 hours per time to determine whether the isookanin irritated the skin.
The patch test was performed using a Finn chamber (Epitest Ltd., Finland). 15 μl of each of the external skin preparations was dropped into the chamber, and then the patch test was performed.
[Equation 1] Average degree of reaction=[[(reaction index×degree of reaction)/(total number of subjects×highest score (4)]×100]÷number of tests (9)
In the degree of reaction, ± represents a score of 1, + represents a score of 2, and ++ represents a score of 4. When the average degree of reaction is less than 3, the corresponding composition is determined to be safe.

human skin [2] = assay: as above; type: in vivo; details: 30 healthy adults; 10th patch test; dash = no subject
HMEC-1 [3] = assay: PGE2-induced vascular endothelial cell migration (scratch assay); type: cell-based, human; details: 20 μM, 24 hours; compared with 100 ng/ml VEGF
Experimental: Human vascular endothelial cells (HMEC-1) were seeded in a 12-well plate at a density of 2×10^5 cells per well and cultured in an incubator for 24 hours at 37° C. under 5% CO2. After the cells in each well were grown to 80% confluency, the central part of each well was scratched using a yellow pipette tip. Next, each well was pretreated with each concentration of isookanin for 2 hours and then treated with 20 μM PGE2 and incubated for 24 hours. As a negative control, 100 ng/ml of VEGF was used. After 24 hours of incubation, the degree of vascular cell migration was observed using a microscope, and the results were photographed with a microscope camera and shown in FIG. 9.

HMEC-1 [4] = assay: PGE2-induced vascular endothelial cell tube formation on Matrigel; type: cell-based, human; details: 20 μM, 24 hours; compared with 100 ng/ml VEGF
Experimental: Human vascular endothelial cells (HMEC-1) were seeded in a Matrigel-coated 24-well plate at a density of 1.2×10^5 cells per well, and each well was pretreated with 10 ppm of isookanin for 2 hours. Next, each well was treated with PGE2 at a concentration of 20 μM and incubated for 24 hours. As a negative control, 100 ng/ml of VEGF was used. After 24 hours of incubation, the degree of vascular cell tube formation was observed using a microscope, and the results were photographed with a microscope camera and analyzed with Image J, and are shown in FIGS. 10 and 11.

| SMILES | Average degree of reaction (human skin [1]; upper arm, 24 hours per patch, Equation 1, less than 3 is determined to be safe) | Number of subjects showing reaction (±, +, ++), 1st (human skin [1]; 1st patch test, dash = no subject) | Number of subjects showing reaction (±, +, ++), 2nd (human skin [1]; 2nd patch test, dash = no subject) | Number of subjects showing reaction (±, +, ++), 5th (human skin [1]; 5th patch test, dash = no subject) | Number of subjects showing reaction (±, +, ++), 6th (human skin [1]; 6th patch test, dash = no subject) | Number of subjects showing reaction (±, +, ++), 7th (human skin [1]; 7th patch test, dash = no subject) | Number of subjects showing reaction (±, +, ++), 8th (human skin [1]; 8th patch test, dash = no subject) | Number of subjects showing reaction (±, +, ++), column between 3rd and 5th (human skin [1]; dash = no subject) | Number of subjects showing reaction (±, +, ++), 10th (human skin [2]) | effect on vascular endothelial cell migration (HMEC-1 [3]) | effect on vascular cell tube formation (HMEC-1 [4]) |
| --- | --- | --- | --- | --- | --- | --- | --- | --- | --- | --- | --- |
| CC(C)=CCC/C(C)=C/CC/C(C)=C/CC/C=C(\C)CC/C=C(\C)CCC=C(C)C [squalene] | 0.09 | - - - | - - - | - - - | - - | - - - | - - - | - - - | - - - |  |  |
| CCCCC[C@H](O)/C=C/[C@H]1[C@H](O)CC(=O)[C@@H]1C/C=C\CCCC(=O)O [PGE2, reference compound] |  |  |  |  |  |  |  |  |  | promoted vascular endothelial cell migration, similar to VEGF | promoted vascular cell tube formation, similar to VEGF |
